Assay results as given in the supplement of paper PMC5908809.

Columns and labels:
Experiment in all cases: relative IC50 (inflection point of fitted viability curve, relative to fitted max inhibition); higher = less sensitive
Settings in all cases: 72 h
NK-YS (IL-2 2.5 ng/mL) = tested on: NK-YS (IL-2 2.5 ng/mL)
Experimental: (§1)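 Drug sensitivity and resistance testing: 5 concentrations over a 10,000-fold range, 72 h at 37 °C, viability by CellTiter-Glo normalised to DMSO and benzethonium chloride controls. IC50 is the inflection point of a logistic fit (min fixed at 0, max fitted), so it is relative to the fitted maximal inhibition. Kept only where fitted max inhibition is at least 50%.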

NK-92 (IL-2 2.5 ng/mL) = tested on: NK-92 (IL-2 2.5 ng/mL)
Experimental: as §1

SNK-6 (IL-2 2.5 ng/mL) = tested on: SNK-6 (IL-2 2.5 ng/mL)
Experimental: as §1

DERL-7 (IL-2 2.5 ng/mL) = tested on: DERL-7 (IL-2 2.5 ng/mL)
Experimental: as §1

IMC-1 (IL-2 20 ng/mL) = tested on: IMC-1 (IL-2 20 ng/mL)
Experimental: as §1

NKL (IL-2 2.5 ng/mL) = tested on: NKL (IL-2 2.5 ng/mL)
Experimental: as §1

KAI3 (IL-2 2.5 ng/mL) = tested on: KAI3 (IL-2 2.5 ng/mL)
Experimental: as §1

KHYG-1 (IL-2 2.5 ng/mL) = tested on: KHYG-1 (IL-2 2.5 ng/mL)
Experimental: as §1

[1] = tested on: normal primary NK cells, pool 1 (3 donors) (IL-2 2.5 ng/mL)
Experimental: as §1

[2] = tested on: normal primary NK cells, pool 1 (3 donors), resting (IL-2 0 ng/mL)
Experimental: as §1

YT (IL-2 2.5 ng/mL) = tested on: YT (IL-2 2.5 ng/mL)
Experimental: as §1

[3] = tested on: normal primary NK cells, pool 3 (3 donors) (IL-2 2.5 ng/mL)
Experimental: as §1

[4] = tested on: normal primary NK cells, pool 2 (3 donors) (IL-2 2.5 ng/mL)
Experimental: as §1

Row | SMILES | relative IC50 (NK-YS (IL-2 2.5 ng/mL)) [nM] | relative IC50 (NK-92 (IL-2 2.5 ng/mL)) [nM] | relative IC50 (SNK-6 (IL-2 2.5 ng/mL)) [nM] | relative IC50 (DERL-7 (IL-2 2.5 ng/mL)) [nM] | relative IC50 (IMC-1 (IL-2 20 ng/mL)) [nM] | relative IC50 (NKL (IL-2 2.5 ng/mL)) [nM] | relative IC50 (KAI3 (IL-2 2.5 ng/mL)) [nM] | relative IC50 (KHYG-1 (IL-2 2.5 ng/mL)) [nM] | relative IC50 [1] [nM] | relative IC50 [2] [nM] | relative IC50 (YT (IL-2 2.5 ng/mL)) [nM] | relative IC50 [3] [nM] | relative IC50 [4] [nM]
1 | CCc1nc(-c2cccc(C)c2)c(-c2ccnc(NC(=O)c3ccccc3)c2)s1 [TAK-715] | 1570 | 2170 | 3250 | – | – | – | – | – | – | – | – | – | –
2 | CCS(=O)(=O)c1cccc(-c2cc(C(=O)NC3CCN(C)CC3)c(C)c3[nH]c4ncc(C)cc4c23)c1 [TAK-901] | 30.8 | – | 135 | 50.2 | 116 | 105 | 116 | 208 | 303 | – | – | – | –
3 | Cc1cc(C(C)Nc2ccccc2)c2nc(N3CCOCC3)cc(=O)n2c1 (configuration not stated) [TGX-221] | – | – | – | – | > 10000 | – | – | – | – | 1450 | – | – | –
4 | C=CC[C@@H]1/C=C(\C)C[C@H](C)C[C@H](OC)[C@H]2O[C@@](O)(C(=O)C(=O)N3CCCC[C@H]3C(=O)O[C@H](/C(C)=C/[C@@H]3CC[C@@H](O)[C@H](OC)C3)[C@H](C)[C@@H](O)CC1=O)[C@H](C)C[C@@H]2OC [Tacrolimus] | – | – | – | – | – | – | – | – | – | 1620 | – | – | –
5 | COc1cc(Nc2ncc(F)c(Nc3ccc4c(n3)NC(=O)C(C)(C)O4)n2)cc(OC)c1OC [Tamatinib] | 1650 | 2180 | 3590 | – | 4100 | 992 | 536 | 1340 | – | > 10000 | 2580 | 2800 | –
6 | COc1cccc2c1c(O)c(C(=O)N(C)c1ccc(C(F)(F)F)cc1)c(=O)n2C [Tasquinimod] | – | – | – | > 10000 | – | – | – | – | – | – | – | > 10000 | > 10000
7 | CO[C@H]1C[C@@H]2CC[C@@H](C)[C@@](O)(O2)C(=O)C(=O)N2CCCC[C@H]2C(=O)O[C@H]([C@H](C)C[C@@H]2CC[C@@H](OC(=O)C(C)(CO)CO)[C@H](OC)C2)CC(=O)[C@H](C)/C=C(\C)[C@@H](O)[C@@H](OC)C(=O)[C@H](C)C[C@H](C)/C=C/C=C/C=C/1C [Temsirolimus] | 0.31 | – | 0.26 | 0.57 | – | 0.09 | 0.5 | 1.32 | – | – | 0.61 | – | –
8 | S=P(N1CC1)(N1CC1)N1CC1 [Thio-TEPA] | – | – | – | – | – | 4100 | 4010 | – | – | – | – | – | –
9 | CC(C)C[C@@H](C(=O)N[C@H](C(=O)OC1CCCC1)c1ccccc1)[C@H](O)C(=O)NO [Tosedostat] | – | – | – | 23.3 | – | 1960 | – | 606 | 942 | 274 | 1520 | – | 903
10 | CC1=C(/C=C/C(C)=C/C=C/C(C)=C/C(=O)O)C(C)(C)CCC1 [Tretinoin] | – | – | – | – | > 10000 | – | – | – | – | – | – | > 10000 | –
11 | CC1(C)CCC(CN2CCN(c3ccc(C(=O)NS(=O)(=O)c4ccc(NCC5CCOCC5)c([N+](=O)[O-])c4)c(Oc4cnc5[nH]ccc5c4)c3)CC2)=C(c2ccc(Cl)cc2)C1 [Venetoclax] | 1450 | 1730 | 34.8 | 211 | – | 115 | 7.28 | 1280 | 859 | 8.76 | 415 | – | –
12 | CC[C@]1(O)C[C@@H]2CN(CCc3c([nH]c4ccccc34)[C@@](C(=O)OC)(c3cc4c(cc3OC)N(C)[C@H]3[C@@](O)(C(=O)OC)[C@H](OC(C)=O)[C@]5(CC)C=CCN6CC[C@]43[C@@H]65)C2)C1 [Vinblastine] | 6.11 | 7.82 | 5.22 | 3.3 | 3.57 | 3.72 | 9.24 | 3.44 | – | – | 4.62 | – | –
13 | COc1cc2c(Nc3ccc(Cl)c(Cl)c3F)ncnc2cc1OC[C@@H]1C[C@@H]2CN(C)C[C@@H]2C1 [XL-647] | – | 183 | – | – | – | 133 | – | – | – | 157 | – | – | –
